Usually IC50 stands for the point on the concentration scale where inhibition reaches its midpoint. In general, viability, T/C refers to the ratio of treated to control.

The results in this text go back to PubChem BioAssay AID2060882 (Molecular Pharmacology Branch, DTP, NCI, 2025).

The test deals with 898857-211-R-J1-PDC complex spheroids, growth % test/control. Put plainly: Anticancer human tumor 898857-211-R-J1-PDC patient-derived melanoma cell line growth inhibition [RAS]. Conditions: for IC50: curve of first compound; for viability, T/C: stronger effect = lower value. Put shortly: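 Multi-cell-type spheroids: tumor cells plus HUVEC endothelial cells and mesenchymal stem cells. RAS-pathway inhibitors were combined with targeted agents, each dosed in half-log steps down from clinical Cmax, or from 10 microM when Cmax was unknown.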
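Note: spheroids exposed to compound for seven days before readout.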
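Throughout, for viability, T/C: 100% = DMSO vehicle control wells.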

For the compound `CC(C)n1nc(-c2ccc3oc(N)nc3c2)c2c(N)ncnc21` + C#Cc1c(F)ccc2cc(O)cc(-c3ncc4c(N5CC6CCC(C5)N6)nc(OCC56CCCN5CC(F)C6)nc4c3F)c12, the concentration for half-maximal inhibition (IC50) reads like this: (second compound 0.0316 µM) 32.6 nM; (second compound 0.1 µM) 38.2 nM; (second compound 0.316 µM) 37.7 nM; (second compound 1 µM) 37.3 nM; (second compound 3.16 µM) 39.6 nM; (second compound 10 µM) 1.06 nM. For the same compound, the viability, T/C (second compound 0.0316 µM, first compound 0.000316 µM) was 108%; the viability, T/C (second compound 0.0316 µM, first compound 0.001 µM) is 92.3%; the viability, T/C (second compound 0.0316 µM, first compound 0.00316 µM) was 101%; the viability, T/C (second compound 0.0316 µM, first compound 0.01 µM) was 81.8%; the viability, T/C (second compound 0.0316 µM, first compound 0.0316 µM) was 50.9%; the viability, T/C (second compound 0.0316 µM, first compound 0.1 µM) was 24%. Further, the viability, T/C (second compound 0.1 µM, first compound 0.000316 µM) is 115%; the viability, T/C (second compound 0.1 µM, first compound 0.001 µM) is 99.8%; the viability, T/C (second compound 0.1 µM, first compound 0.00316 µM) is 100%; the viability, T/C (second compound 0.1 µM, first compound 0.01 µM) is 79.5%; the viability, T/C (second compound 0.1 µM, first compound 0.0316 µM) is 54.4%; the viability, T/C (second compound 0.1 µM, first compound 0.1 µM) is 24.5%. For the same compound, the viability, T/C by setting is: (second compound 0.316 µM, first compound 0.000316 µM) 112%; (second compound 0.316 µM, first compound 0.001 µM) 113%; (second compound 0.316 µM, first compound 0.00316 µM) 99.2%; (second compound 0.316 µM, first compound 0.01 µM) 78.9%; (second compound 0.316 µM, first compound 0.0316 µM) 55.6%; (second compound 0.316 µM, first compound 0.1 µM) 26.6%. The viability, T/C reads like this: (second compound 1 µM, first compound 0.000316 µM) 110%; (second compound 1 µM, first compound 0.001 µM) 103%; (second compound 1 µM, first compound 0.00316 µM) 107%; (second compound 1 µM, first compound 0.01 µM) 81.4%; (second compound 1 µM, first compound 0.0316 µM) 55.8%; (second compound 1 µM, first compound 0.1 µM) 23.5%. In addition, the viability, T/C runs as follows: (second compound 3.16 µM, first compound 0.000316 µM) 122%; (second compound 3.16 µM, first compound 0.001 µM) 114%; (second compound 3.16 µM, first compound 0.00316 µM) 102%; (second compound 3.16 µM, first compound 0.01 µM) 84.4%; (second compound 3.16 µM, first compound 0.0316 µM) 55.8%; (second compound 3.16 µM, first compound 0.1 µM) 23.8%. The viability, T/C (second compound 10 µM, first compound 0.000316 µM) was 57.5%; the viability, T/C (second compound 10 µM, first compound 0.001 µM) is 47.7%; the viability, T/C (second compound 10 µM, first compound 0.00316 µM) was 46.7%; the viability, T/C (second compound 10 µM, first compound 0.01 µM) was 29.9%; the viability, T/C (second compound 10 µM, first compound 0.0316 µM) is 24.4%; the viability, T/C (second compound 10 µM, first compound 0.1 µM) is 10.4%.

Take `C#Cc1c(F)ccc2cc(O)cc(-c3ncc4c(N5CC6CCC(C5)N6)nc(OCC56CCCN5CC(F)C6)nc4c3F)c12` (stereo not drawn): the viability, T/C (compound 0.0316 µM) was 105% [middle of 8 runs]; the viability, T/C (compound 0.1 µM) is 111% [middle of 8 runs]; the viability, T/C (compound 0.316 µM) is 108% [middle of 8 runs]; the viability, T/C (compound 1 µM) was 109% [middle of 8 runs]; the viability, T/C (compound 3.16 µM) was 103% [middle of 8 runs]; the viability, T/C (compound 10 µM) is 50.8% [middle of 8 runs].
